Assay results: patent publication US20240382491A1, “METHODS FOR TREATING NEUROGENERATIVE DISEASES” (PTC THERAPEUTICS, INC., priority 2021, published 2024)

Tested on: MAPT 3R mRNA (Microtubule associated protein Tau)
Experiment: RT-qPCR Assay to Quantify MAPT 3R mRNA in Cells
Type: cell-based
Conditions: MAPT 3R mRNA by RT-qPCR, GAPDH assay in same reaction; cells treated 24 h; 7-point concentration curve

| Structure (SMILES) | EC (2-fold increase) [µM] |
| --- | --- |
| C[C@H](N)Cc1[nH]c2nc(Cl)nc(NCc3ccco3)c2c1F [Cpd 10, 6-[(2S)-2-aminopropyl]-2-chloro-5-fluoro-N-[(furan-2-yl)methyl]-7H-pyrrolo[2,3-d]pyrimidin-4-amine] | 0.05 to 0.5 |
| CNCCc1[nH]c2nc(Cl)nc(NCc3ccco3)c2c1Cl [Cpd 17, 2,5-dichloro-N-[(furan-2-yl)methyl]-6-[2-(methylamino)ethyl]-7H-pyrrolo[2,3-d]pyrimidin-4-amine] | 1 to 1.5 |
| C[C@H](N)Cc1c(Cl)c2c(NCc3ccco3)nc(Cl)nc2n1C [Cpd 23, 6-[(2S)-2-aminopropyl]-2,5-dichloro-N-[(furan-2-yl)methyl]-7-methyl-7H-pyrrolo[2,3-d]pyrimidin-4-amine] | 0.05 to 0.5 |
| C[C@H](N)Cc1c(F)c2c(NCc3ccco3)nc(Cl)nc2n1C [Cpd 24, 6-[(2S)-2-aminopropyl]-2-chloro-5-fluoro-N-[(furan-2-yl)methyl]-7-methyl-7H-pyrrolo[2,3-d]pyrimidin-4-amine] | 0.05 to 0.5 |
| Cc1c(C[C@H](C)N)n(C)c2nc(Cl)nc(NCc3ccco3)c12 [Cpd 35, 6-[(2S)-2-aminopropyl]-2-chloro-N-[(furan-2-yl)methyl]-5,7-dimethyl-7H-pyrrolo[2,3-d]pyrimidin-4-amine] | 0.05 to 0.5 |
| C[C@H](N)Cc1c(F)c2c(NCc3nccs3)nc(Cl)nc2n1C [Cpd 38, 6-[(2S)-2-aminopropyl]-2-chloro-5-fluoro-7-methyl-N-[(1,3-thiazol-2-yl)methyl]-7H-pyrrolo[2,3-d]pyrimidin-4-amine] | 0.5 to 1 |
| C[C@H](N)Cc1c(F)c2c(NCc3ccncc3F)nc(Cl)nc2n1C [Cpd 41, 6-[(2S)-2-aminopropyl]-2-chloro-5-fluoro-N-[(3-fluoropyridin-4-yl)methyl]-7-methyl-7H-pyrrolo[2,3-d]pyrimidin-4-amine] | 0.5 to 1 |
| C[C@H](N)Cc1c(F)c2c(NCc3ccncc3)nc(Cl)nc2n1C [Cpd 43, 6-[(2S)-2-aminopropyl]-2-chloro-5-fluoro-7-methyl-N-[(pyridin-4-yl)methyl]-7H-pyrrolo[2,3-d]pyrimidin-4-amine] | 0.5 to 1 |
| C[C@H](N)Cc1c(F)c2c(NCc3cccs3)nc(Cl)nc2n1C [Cpd 49, 6-[(2S)-2-aminopropyl]-2-chloro-5-fluoro-7-methyl-N-[(thiophen-2-yl)methyl]-7H-pyrrolo[2,3-d]pyrimidin-4-amine] | 0.05 to 0.5 |

Tested on: IKBKAP gene
Experiment: not given
Conditions: as reported in International Publication No. WO2016/115434; cited from earlier work

| Structure (SMILES) | potency in correcting mRNA splicing and promoting exon 20 inclusion in the IKBKAP gene |
| --- | --- |
| Clc1nc(NCc2ccncc2)c2cc[nH]c2n1 [Comparison Compound 1, 2-chloro-N-(pyridin-4-ylmethyl)-7H-pyrrolo[2,3-d]pyrimidin-4-amine] | very potent |
